For one series, the system named is mice. Particulars: intravenous, equimolar amounts to propofol.
A further series relates to KM mice. As to the kind of experiment: ED50 and LD50 test concerning anesthesia (sequential method) in mice. The format is in vivo. Particulars: for Mouse ED50: anesthesia (loss of righting reflex); for Mouse ED50 / Mouse LD50: caudal vein injection.
A further series relates to SD rats. The series is described as follows: ED50 and LD50 test concerning anesthesia (sequential method) in rats. The format is in vivo. Particulars: for Rat ED50: anesthesia (loss of righting reflex); for Rat ED50 / Rat LD50: caudal vein injection.
Series [1] concerns New Zealand White rabbits. As to the kind of experiment: ED50 and LD50 test concerning anesthesia (sequential method) in rabbits. The format is in vivo. Particulars: for TI index: TI=LD50/ED50; for LD50 / ED50: injection via ear vein; for LD50: death; for ED50: disappearance of righting reflex.
Procedure: (§1) Test samples for the experiment on rabbit were formulated to have corresponding concentrations based on the results from a preliminary test. […] Rats and mice were administered with samples having a fixed concentration of drugs, while the volume of administration altered according to actual situation. The volume of administration to rabbits was 1 mL/kg body weight.
(§2) ED50 and LD50 values concerning anesthesia were determined using a sequential method. Healthy KM mice (male), SD rats (male) and New Zealand White rabbits were used for test. […] For rabbits, the compounds were administered by injection at a constant rate via ear vein for 30 seconds. Before the test, a preliminary test was conducted to determine an approximate dosage (volume of administration) that leads to anesthetization (or death) of animals, which was set as the middle dosage in the formal test. […] The disappearance of righting reflex or death was used as indicators of pharmacological efficacy or toxicity, respectively. The formal test began with the administration of the middle dosage. If animals were anesthetized, a lower dosage was administered; if animals were not anesthetized, a higher dosage was administered, until the cycle was repeated for 3-4 times. LD50 and ED50 were calculated by a sequential method aot425 software. TI was calculated according to the following equation: TI=LD50/ED50.
The test system of a further series is Kunming mice. As to the kind of experiment: Latent period and persistent period of anesthesia in mice. Format: in vivo. Particulars: intravenous injection.
The conditions of series [2]: rabbit plasma, 37° C.; for Sampling time/dissociation percent (%) 15 s / Sampling time/dissociation percent (%) 30 s: formula F derivatives.
Procedure: (§3) 0.1 ml samples were taken from each of the solutions, added respectively to 1 ml of blood plasma of rabbit (taken from New Zealand white rabbits, treated according to conventional methods, anticoagulated with heparin) or 1 ml of blood plasma of rat (taken from live SD rats, treated according to conventional methods, anticoagulated with heparin), homogeneously mixed, and placed in a thermostatic water bath at 37° C. for incubation with time being recorded. Samples were taken at different time points after the experiment began, and 2 ml of acetonitrile was immediately added. The samples were shaken and centrifuged for 5 min (15,000 rpm), and the supernatant was then taken for HPLC analysis.
The conditions of series [3]: rat plasma, 37° C.; for Sampling time/dissociation percent (%) 5 s / Sampling time/dissociation percent (%) 15 s / Sampling time/dissociation percent (%) 30 s: formula F derivatives.
Procedure: as §3
Series [4] in a line: In vitro dissociation of the water soluble taxane derivatives in blood plasma of rat. Format: in vitro ADME, SD rats. Conditions: 37° C. How it is done:
The obtained water soluble taxane derivatives were formulated as 0.2 mg/ml aqueous solutions. […] After 2 min, 5 min and 10 min of incubation, 0.2 ml of solutions were respectively taken from each of the samples, and added to acetonitrile (0.4 ml) cooled to −20° C. for precipitation of protein.

Series [5] is described as follows: In vitro dissociation of the water soluble taxane derivatives in blood plasma of rabbit. The format is in vitro ADME, New Zealand white rabbits. Conditions: 37° C. How it is done:
The obtained water soluble taxane derivatives were formulated as 0.2 mg/ml aqueous solutions. […] After 5 min, 20 min and 60 min of incubation, 0.2 ml of solutions were respectively taken from each of the samples, and added to acetonitrile (0.4 ml) cooled to −20° C. for precipitation of protein.

The conditions of series [6]: rats, 5 mg/kg intravenous, 5 min after administration.
Procedure: After 5 min of administration, 0.3 ml of venous blood was taken from the retrobulbar venous plexus of the rats, placed in heparinized tubes, and centrifuged at 11,000 rpm for 5 min. Blood plasma was separated, and the concentrations of the compounds in the blood plasma were determined by liquid chromatography-mass spectrometry.
The mark [7] stands for this setting: 3 mg/ml solution, confirmation test.
[8] abbreviates: 6 mg/ml solution, confirmation test.
Setting [9] is: dosage 2 * ED50, 3 mg/ml solution.
The mark [10] stands for this setting: dosage 2 * ED50, 6 mg/ml solution.

Where two headings read alike, the source gives them in different places. Marks after values point to notes of the source that are not given here.

Procedure for KM mice: as §1, §2
Procedure for SD rats: as §1, §2

Take `CC(C)c1cccc(C(C)C)c1OC(=O)CCCN(C)C.Cl` [J′-1, reference compound]: in the series with mice, the “latent period for anesthesia compared to propofol” value is listed as “much longer than those of propofol”, the “neurotoxic response after waking up” value is given as “transient hemiplegia after waking up” and the “persistent period for anesthesia compared to propofol” value is given as “much longer than those of propofol”.
In the case of `CC(C)c1cccc(C(C)C)c1OC(=O)C(F)CCC(=O)[O-].[Na+]` (racemic) [Compound F1, propofol 4-carboxyl-2(R,S)-fluorovalerate sodium salt], in the series on KM mice (setting [7]), the “TI Mouse” value was 2.8, the “Mouse ED50” value is given as 18.6 mg/kg and the “Mouse LD50” value amounted to 52.3 mg/kg. In the series on KM mice (3 mg/ml solution, first test), the “TI Mouse” value was 3*, the “Mouse ED50” value is listed as 20.8 mg/kg and the “Mouse LD50” value stood at 63.4 mg/kg. For the same compound, in the series with KM mice (setting [8]), the “TI Mouse” value was found to be 3.3, the “Mouse ED50” value turned out to be 16.7 mg/kg and the “Mouse LD50” value was 55.4 mg/kg. Moreover, in the series on KM mice (6 mg/ml solution, first test), the “TI Mouse” value is listed as 2.7*, the “Mouse ED50” value is on record as 18.2 mg/kg and the “Mouse LD50” value was determined as 49.7 mg/kg. In the series with SD rats (3 mg/ml solution), the “TI Rat” value is 3.0, the “Rat ED50” value is recorded as 14.6 mg/kg and the “Rat LD50” value amounted to 44.1 mg/kg. For the same compound, in the series with SD rats (6 mg/ml solution), the “TI Rat” value was determined as 3.7, the “Rat ED50” value is 11.3 mg/kg and the “Rat LD50” value was 42.3 mg/kg. For the same compound, in series [1], the TI index came to 2.8, the LD50 is 34.4 (32.1-36.5) mg/kg and the ED50 is reported as 12.2 (10.6-14.6) mg/kg. Further, in the series with Kunming mice (setting [9]), the “Latent Period” value is recorded as 18.6 ± 0.7 s and the “Persistent period” value is listed as 349.7 ± 229.4 s. In addition, in the series on Kunming mice (setting [10]), the “Latent Period” value is 15.2 ± 1.4 s and the “Persistent period” value is given as 523 ± 248 s. In [2], the “Sampling time/dissociation percent (%) 15 s” value worked out at 47.5% and the “Sampling time/dissociation percent (%) 30 s” value is 75.5%. In series [3], the “Sampling time/dissociation percent (%) 5 s” value turned out to be 64.1%, the “Sampling time/dissociation percent (%) 15 s” value is recorded as 70.2% and the “Sampling time/dissociation percent (%) 30 s” value is reported as 86.7%.
For `CC(=O)O[C@H]1C(=O)[C@@]2(C)[C@H]([C@H](OC(=O)c3ccccc3)[C@]3(O)C[C@H](OC(=O)[C@H](OC(=O)[C@@H](F)CCN(C)C)[C@@H](NC(=O)c4ccccc4)c4ccccc4)C(C)=C1C3(C)C)[C@]1(OC(C)=O)CO[C@@H]1C[C@@H]2O.Cl` [Compound 02, 2′-O-[4-(N,N-dimethyl)amino-2(S)-fluorobutyryl]paclitaxel hydrochloride], the dissociation percent in series [4] (2 min) was determined as 59.8%; in series [4] (5 min) it was 95.6%; in series [4] (10 min) it was 100%; in series [5] (5 min), 68.2%; in [5] (20 min) it was 97.5%; in series [5] (60 min), 100%. Moreover, the “detection of the administered derivative in the blood plasma” value in series [6] was “cannot be detected”.
With `CC(=O)O[C@H]1C(=O)[C@@]2(C)[C@H]([C@H](OC(=O)c3ccccc3)[C@]3(O)C[C@H](OC(=O)[C@H](OC(=O)C(F)CCN(C)C)[C@@H](NC(=O)c4ccccc4)c4ccccc4)C(C)=C1C3(C)C)[C@]1(OC(C)=O)CO[C@@H]1C[C@@H]2O.Cl` (stereo partly drawn) [Compound 03, 2′-O-[4-(N,N-dimethyl)amino-2(R,S)-fluorobutyryl]paclitaxel Hydrochloride], the dissociation percent in series [4] (2 min) is reported as 61.8%; in series [4] (5 min) it was 93.1%; in series [4] (10 min) it was 100%; in [5] (5 min), 75.7%; in series [5] (20 min) it was 93.5%; in series [5] (60 min), 100%. Besides, in [6], the “detection of the administered derivative in the blood plasma” value was “cannot be detected”.
As to `CC(C)c1cccc(C(C)C)c1OC(=O)[C@H](F)CCN(C)C.Cl` [Compound E2, Propofol 4-(N,N-dimethyl)amino-2(R)-fluorobutyrate Hydrochloride], the “TI Mouse” value with KM mice (setting [7]) is reported as 3^; in the series on KM mice (3 mg/ml solution, first test), 4*; in the series with KM mice (setting [8]) it was 3.7; in the series on KM mice (6 mg/ml solution, first test), 3.6*. In addition, the “Mouse ED50” value with KM mice (setting [7]) was 15.4 mg/kg; in the series on KM mice (3 mg/ml solution, first test) it was 17.9 mg/kg; in the series with KM mice (setting [8]), 13.0 mg/kg; in the series with KM mice (6 mg/ml solution, first test), 15.2 mg/kg. Further, the “Mouse LD50” value in the series on KM mice (setting [7]) turned out to be 46.9 mg/kg; with KM mice (3 mg/ml solution, first test) it was 71.8 mg/kg; with KM mice (setting [8]) it was 48.0 mg/kg; with KM mice (6 mg/ml solution, first test) it was 55.1 mg/kg. For the same compound, the “TI Rat” value in the series on SD rats (3 mg/ml solution) stood at 3.8; in the series on SD rats (6 mg/ml solution), 3.1. The entries for the “Rat ED50” value with SD rats (3 mg/ml solution) and in the series with SD rats (6 mg/ml solution) were 9.8 mg/kg and 10.1 mg/kg, respectively. Moreover, the entries for the “Rat LD50” value with SD rats (3 mg/ml solution) and with SD rats (6 mg/ml solution) were 37.5 mg/kg and 30.7 mg/kg, respectively. Further, the TI index in [1] is 3.5. For the same compound, the LD50 in series [1] is given as 28 (23.0-34.2) mg/kg. Moreover, in series [1], the ED50 is 8 (5.7-10.5) mg/kg. In addition, the “Latent Period” value in the series with Kunming mice (setting [9]) is given as 14.6 ± 0.9 s; in the series with Kunming mice (setting [10]), 14.2 ± 1.9 s. The “Persistent period” value in the series with Kunming mice (setting [9]) is listed as 383.6 ± 242.1 s; with Kunming mice (setting [10]), 543 ± 231 s. Also, the results for the dissociation percent in series [2] (15 s), in series [2] (30 s) and in series [3] (5 s) were 97.7%, 100% and 100%, respectively.
Consider `CC(C)c1cccc(C(C)C)c1OC(=O)[C@H](F)CCN(C)C.Cl` [J′], for which, in the series with mice, the “latent period for anesthesia compared to propofol” value is given as “almost equal to those of propofol”, the “neurotoxic response after waking up” value is “no neurotoxic response was observed” and the “persistent period for anesthesia compared to propofol” value is on record as “almost equal to those of propofol”.
On to `CC(C)c1cccc(C(C)C)c1OC(=O)C(F)CC(=O)[O-].[Na+]` [Compound F7, propofol 3-carboxyl-2(R)-fluorobutyrate sodium salt], for which, in the series on KM mice (setting [7]), the “TI Mouse” value is reported as 2.6, the “Mouse ED50” value worked out at 19.2 mg/kg and the “Mouse LD50” value was determined as 51.6 mg/kg. In the series on KM mice (3 mg/ml solution, first test), the “TI Mouse” value is 2.8*, the “Mouse ED50” value came out at 21.4 mg/kg and the “Mouse LD50” value turned out to be 59.8 mg/kg. In the series with KM mice (setting [8]), the “TI Mouse” value worked out at 3.1, the “Mouse ED50” value was determined as 18.1 mg/kg and the “Mouse LD50” value came out at 56.6 mg/kg. In addition, in the series with KM mice (6 mg/ml solution, first test), the “TI Mouse” value is 2.4*, the “Mouse ED50” value turned out to be 20.7 mg/kg and the “Mouse LD50” value was 51.2 mg/kg. Further, in the series with SD rats (3 mg/ml solution), the “TI Rat” value worked out at 3.0, the “Rat ED50” value is given as 15.7 mg/kg and the “Rat LD50” value was 47.4 mg/kg. In the series on SD rats (6 mg/ml solution), the “TI Rat” value turned out to be 3.5, the “Rat ED50” value was found to be 12.5 mg/kg and the “Rat LD50” value is 44.4 mg/kg. Moreover, in [1], the TI index worked out at 2.6, the LD50 is on record as 36.7 (33.8-39.4) mg/kg and the ED50 is recorded as 13.9 (11.1-16.8) mg/kg. Also, in the series on Kunming mice (setting [9]), the “Latent Period” value is reported as 20.2 ± 0.6 s and the “Persistent period” value was determined as 335.5 ± 218.1 s. For the same compound, in the series on Kunming mice (setting [10]), the “Latent Period” value is 16.2 ± 2.2 s and the “Persistent period” value came to 517 ± 231 s. For the same compound, in [2], the “Sampling time/dissociation percent (%) 15 s” value came out at 46.3% and the “Sampling time/dissociation percent (%) 30 s” value is 72.8%. In addition, in series [3], the “Sampling time/dissociation percent (%) 5 s” value is recorded as 58.8%, the “Sampling time/dissociation percent (%) 15 s” value came to 71.3% and the “Sampling time/dissociation percent (%) 30 s” value worked out at 85.4%.
